{"source": "paper PMC12675575", "about": "“A BRET biosensor for measuring uncompetitive engagement of PRMT5 complexes in cells” (Nature Communications, 2025)", "key": {"NLuc-PRMT5": {"biological_target": "NLuc-PRMT5 (Homo sapiens, UniProt O14744)", "sequence (O14744 whole entry)": "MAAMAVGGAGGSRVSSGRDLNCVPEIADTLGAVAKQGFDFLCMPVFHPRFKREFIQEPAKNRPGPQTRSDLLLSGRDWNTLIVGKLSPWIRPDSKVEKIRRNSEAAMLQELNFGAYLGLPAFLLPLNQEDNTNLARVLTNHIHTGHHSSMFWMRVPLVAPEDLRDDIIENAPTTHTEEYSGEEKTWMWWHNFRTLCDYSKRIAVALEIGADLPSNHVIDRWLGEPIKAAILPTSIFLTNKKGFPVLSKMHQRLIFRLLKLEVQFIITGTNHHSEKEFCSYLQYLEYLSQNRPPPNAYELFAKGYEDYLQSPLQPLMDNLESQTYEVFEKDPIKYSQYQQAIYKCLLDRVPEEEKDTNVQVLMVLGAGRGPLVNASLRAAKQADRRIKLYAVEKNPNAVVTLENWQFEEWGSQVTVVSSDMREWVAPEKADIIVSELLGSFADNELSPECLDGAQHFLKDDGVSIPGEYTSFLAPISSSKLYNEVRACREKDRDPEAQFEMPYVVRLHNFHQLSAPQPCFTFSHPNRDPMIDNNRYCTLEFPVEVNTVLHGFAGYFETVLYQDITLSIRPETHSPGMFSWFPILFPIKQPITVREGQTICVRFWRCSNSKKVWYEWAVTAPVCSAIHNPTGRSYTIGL", "sequence (Q9BQA1 whole entry partner)": "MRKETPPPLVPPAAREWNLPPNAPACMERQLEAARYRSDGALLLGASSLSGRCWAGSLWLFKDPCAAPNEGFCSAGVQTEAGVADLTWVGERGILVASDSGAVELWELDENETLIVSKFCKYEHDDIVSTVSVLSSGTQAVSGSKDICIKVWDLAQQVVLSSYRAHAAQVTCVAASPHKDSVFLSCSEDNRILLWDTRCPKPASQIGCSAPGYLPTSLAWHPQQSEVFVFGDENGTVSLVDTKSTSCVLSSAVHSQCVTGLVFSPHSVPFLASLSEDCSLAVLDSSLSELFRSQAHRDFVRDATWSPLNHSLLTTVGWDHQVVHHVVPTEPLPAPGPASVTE", "assay": "BRET probe CBH-002 binding kinetics (association, dissociation by GSK3326595) in live HEK293 cells", "assay_type": "cell-based", "parameters": "host or cells: HEK293 (live cells; digitonin lysate for the SAM titration); Tracer association (Figure S3C): unit not given here", "description": "To determine BRET probe binding kinetics, live HEK293 cells were treated with 30 nM CBH-002 and BRET measurements were read in 3 min intervals for 2 h at room temperature."}, "PRMT9": {"biological_target": "T1, PRMT9 (Homo sapiens, UniProt Q6P2P2)", "T1 construct": "host or cells: HEK293", "T1 sequence (Q6P2P2 1-845)": "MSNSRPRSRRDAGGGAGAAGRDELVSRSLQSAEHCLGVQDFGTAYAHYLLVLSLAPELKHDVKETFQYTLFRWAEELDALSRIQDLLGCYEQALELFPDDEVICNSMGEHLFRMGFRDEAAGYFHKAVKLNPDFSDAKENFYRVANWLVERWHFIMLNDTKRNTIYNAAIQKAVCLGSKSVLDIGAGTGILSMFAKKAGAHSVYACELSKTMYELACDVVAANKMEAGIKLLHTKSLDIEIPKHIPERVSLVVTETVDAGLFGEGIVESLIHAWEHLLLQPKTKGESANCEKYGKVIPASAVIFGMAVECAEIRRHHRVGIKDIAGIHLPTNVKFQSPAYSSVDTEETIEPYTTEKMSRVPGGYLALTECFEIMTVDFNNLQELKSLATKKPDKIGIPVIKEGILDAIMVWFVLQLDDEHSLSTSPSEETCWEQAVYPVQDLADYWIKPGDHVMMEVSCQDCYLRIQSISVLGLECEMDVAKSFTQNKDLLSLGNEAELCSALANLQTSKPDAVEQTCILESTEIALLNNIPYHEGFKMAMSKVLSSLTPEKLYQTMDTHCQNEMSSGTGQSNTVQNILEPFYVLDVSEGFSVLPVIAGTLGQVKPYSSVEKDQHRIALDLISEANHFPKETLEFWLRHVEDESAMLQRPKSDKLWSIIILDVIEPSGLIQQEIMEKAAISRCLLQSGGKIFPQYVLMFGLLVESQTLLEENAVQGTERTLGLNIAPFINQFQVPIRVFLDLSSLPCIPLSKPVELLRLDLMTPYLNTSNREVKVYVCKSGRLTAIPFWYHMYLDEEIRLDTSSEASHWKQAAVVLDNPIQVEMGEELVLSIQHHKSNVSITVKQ", "assay": "CBH-002 affinity curve, HEK293, PRMT9-NL fusion", "assay_type": "cell-based", "parameters": "BRET, CBH-002 + DMSO / BRET, CBH-002 + GSK3326595: unit not given here", "settings": "for BRET, CBH-002 + DMSO / BRET, CBH-002 + GSK3326595: Figure S2D PRMT9-NL, log([CBH-002])", "description": "HEK293 cells (ATCC) were cultured in DMEM (Thermo Fisher) + 10% (v/v) FBS (Seredigm), and HCT116 cells (Horizon Discovery, #PAR-034 and #R02-033) were cultured in McCoy’s 5A (Thermo Fisher) + 10% FBS, with incubation in a humidified, 37 °C/5% CO2 incubator. Cells were split 1–3 days prior to performing experiments and used at roughly 80% confluency. […] Cells were transfected according to the manufacturer’s protocol using FuGENE HD (Promega). NanoLuc fusion DNA was diluted into Transfection Carrier DNA (Promega) in Opti-MEM at a ratio of 1:9 (mass/mass), and FuGENE HD was added at a ratio of 1:3 (μg DNA:μL lipid). For experiments using WDR77, untagged WDR77 DNA (Promega) was used in place of Carrier DNA. Formed complexes were combined with cells resuspended to a density of 2 × 10^5 cells/mL in Opti-MEM + 1% FBS at a ratio of 1:20 (vol:vol). Cells were plated into a flask and incubated at 37 °C in a humidified 5% CO2 atmosphere for 18–24 h, before being lifted and seeded into 96-well non-binding surface-treated plates (Corning). Cells were seeded at a density of 2 × 10^5 cells/mL in Opti-MEM + 1% FBS in 100 μL (96-well). The BRET probe CBH-002 was prepared first as a 100× stock in 100% DMSO (Sigma) and then diluted to a 20× stock in NanoBRET Tracer Dilution buffer (Promega). Test compounds were prepared as 1000× stocks in 100% DMSO and diluted to 10× stocks in Opti-MEM to prepare working stocks. […] NanoBRET Complete 3x Substrate was prepared by combining Nano-Glo Substrate and Extracellular NanoLuc Inhibitor in Opti-MEM, according to the manufacturer’s protocol (Promega). NanoBRET Complete 3× Substrate was added to cells and plates were measured on either a PheraSTAR FSX equipped with 450 nm (donor) and 610 nm (acceptor) filters, or a GloMAX Discover equipped with 450/8 nm BP (donor) and 600 nm LP (acceptor) filters, using a 0.3 s integration time.\nEC50 values were obtained by fitting the BRET probe and compound affinity curves to a sigmoidal four-parameter fit model in Graphpad Prism:1 Y=Ymin+Ymax−Ymin/1+10^LogEC50−Xh where h is the Hill Slope."}}, "note": "Values joined by “and” are separate entries in the source; they are usually repeats but may differ in a detail not shown here. Equal entries are not always repeated."}
{"molecule": "O=C(CCc1ccc2n1[B-](F)(F)[N+]1=C(c3ccc[nH]3)C=CC1=C2)NCCCCC(=O)N1CCC(Nc2cc(C(=O)NC[C@H](O)CN3CCc4ccccc4C3)ncn2)CC1", "note": "[CBH-002]", "values": [{"measurement": "Tracer association (Figure S3C)", "setting": "NLuc-PRMT5; Time (min) -27", "result": "84.20 and 89.90 and 88.10 and 83.20"}, {"measurement": "Tracer association (Figure S3C)", "setting": "NLuc-PRMT5; Time (min) -30", "result": "82.70 and 89.80 and 85.50 and 82.10"}, {"measurement": "Tracer association (Figure S3C)", "setting": "NLuc-PRMT5; Time (min) -33", "result": "82.30 and 86.20 and 84.70 and 81.40"}, {"measurement": "Tracer association (Figure S3C)", "setting": "NLuc-PRMT5; Time (min) -36", "result": "79.10 and 84.40 and 82.30 and 79.90"}, {"measurement": "Tracer association (Figure S3C)", "setting": "NLuc-PRMT5; Time (min) -39", "result": "78.00 and 83.20 and 80.40 and 77.80"}, {"measurement": "Tracer association (Figure S3C)", "setting": "NLuc-PRMT5; Time (min) -42", "result": "74.70 and 81.80 and 78.20 and 76.90"}, {"measurement": "Tracer association (Figure S3C)", "setting": "NLuc-PRMT5; Time (min) -45", "result": "72.40 and 79.70 and 77.50 and 73.60"}, {"measurement": "Tracer association (Figure S3C)", "setting": "NLuc-PRMT5; Time (min) -48", "result": "71.50 and 77.50 and 73.90 and 72.30"}, {"measurement": "Tracer association (Figure S3C)", "setting": "NLuc-PRMT5; Time (min) -51", "result": "70.80 and 74.30 and 71.70 and 69.80"}, {"measurement": "Tracer association (Figure S3C)", "setting": "NLuc-PRMT5; Time (min) -54", "result": "67.60 and 72.60 and 69.10 and 66.30"}, {"measurement": "Tracer association (Figure S3C)", "setting": "NLuc-PRMT5; Time (min) -57", "result": "64.20 and 69.60 and 66.90 and 64.40"}, {"measurement": "Tracer association (Figure S3C)", "setting": "NLuc-PRMT5; Time (min) -60", "result": "62.40 and 67.20 and 64.20 and 62.00"}, {"measurement": "Tracer association (Figure S3C)", "setting": "NLuc-PRMT5; Time (min) -63", "result": "58.70 and 64.40 and 60.70 and 59.40"}, {"measurement": "Tracer association (Figure S3C)", "setting": "NLuc-PRMT5; Time (min) -66", "result": "56.10 and 60.10 and 57.50"}, {"measurement": "Tracer association (Figure S3C)", "setting": "NLuc-PRMT5; Time (min) -69", "result": "53.40 and 56.10 and 54.60 and 53.80"}, {"measurement": "Tracer association (Figure S3C)", "setting": "NLuc-PRMT5; Time (min) -72", "result": "50.10 and 53.80 and 51.80"}, {"measurement": "Tracer association (Figure S3C)", "setting": "NLuc-PRMT5; Time (min) -75", "result": "46.70 and 49.90 and 47.90 and 46.40"}, {"measurement": "Tracer association (Figure S3C)", "setting": "NLuc-PRMT5; Time (min) -78", "result": "43.20 and 46.00 and 44.30 and 42.50"}, {"measurement": "Tracer association (Figure S3C)", "setting": "NLuc-PRMT5; Time (min) -81", "result": "39.30 and 42.30 and 40.80 and 39.10"}, {"measurement": "Tracer association (Figure S3C)", "setting": "NLuc-PRMT5; Time (min) -84", "result": "36.10 and 38.40 and 35.80"}, {"measurement": "Tracer association (Figure S3C)", "setting": "NLuc-PRMT5; Time (min) -87", "result": "31.70 and 33.50 and 32.20 and 31.50"}, {"measurement": "Tracer association (Figure S3C)", "setting": "NLuc-PRMT5; Time (min) -90", "result": "27.90 and 29.40 and 28.10 and 27.70"}, {"measurement": "Tracer association (Figure S3C)", "setting": "NLuc-PRMT5; Time (min) -93", "result": "22.90 and 24.80 and 24.00 and 23.50"}, {"measurement": "Tracer association (Figure S3C)", "setting": "NLuc-PRMT5; Time (min) -96", "result": "18.60 and 20.70 and 19.20"}, {"measurement": "Tracer association (Figure S3C)", "setting": "NLuc-PRMT5; Time (min) -99", "result": "13.20 and 15.60 and 14.50"}, {"measurement": "Tracer association (Figure S3C)", "setting": "NLuc-PRMT5; Time (min) -102", "result": "7.40 and 9.50 and 8.80 and 9.10"}, {"measurement": "Time for BRET biosensor to reach equilibrium", "setting": "NLuc-PRMT5; live cells, room temperature, 30 nM CBH-002", "result": "~ 2 h"}, {"measurement": "BRET, CBH-002 + DMSO", "setting": "PRMT9; uM 0.04576", "result": "3.434 and 3.347 and 3.1287"}, {"measurement": "BRET, CBH-002 + GSK3326595", "setting": "PRMT9; uM 0.04576", "result": "3.008 and 3.39 and 2.997"}, {"measurement": "BRET, CBH-002 + DMSO", "setting": "PRMT9; uM 0.52288", "result": "4.122 and 5.87 and 4.53"}, {"measurement": "BRET, CBH-002 + GSK3326595", "setting": "PRMT9; uM 0.52288", "result": "5.212 and 4.497 and 4.8771"}, {"measurement": "BRET, CBH-002 + DMSO", "setting": "PRMT9; uM 1", "result": "6.91 and 7.001 and 6.884"}, {"measurement": "BRET, CBH-002 + GSK3326595", "setting": "PRMT9; uM 1", "result": "6.307 and 7.343 and 6.276"}, {"measurement": "BRET, CBH-002 + DMSO", "setting": "PRMT9; uM -0.43136", "result": "2.433 and 2.903 and 2.863"}, {"measurement": "BRET, CBH-002 + GSK3326595", "setting": "PRMT9; uM -0.43136", "result": "2.897 and 2.374 and 2.8944"}, {"measurement": "BRET, CBH-002 + DMSO", "setting": "PRMT9; uM -0.90849", "result": "2.344 and 2.202 and 2.303"}, {"measurement": "BRET, CBH-002 + GSK3326595", "setting": "PRMT9; uM -0.90849", "result": "2.454 and 2.214 and 2.074"}, {"measurement": "BRET, CBH-002 + DMSO", "setting": "PRMT9; uM -1.20952", "result": "1.839 and 2.321 and 2.413"}, {"measurement": "BRET, CBH-002 + GSK3326595", "setting": "PRMT9; uM -1.20952", "result": "2.422 and 2.062 and 3.074"}, {"measurement": "BRET, CBH-002 + DMSO", "setting": "PRMT9; uM -1.68664", "result": "1.998 and 2.054 and 2.063"}, {"measurement": "BRET, CBH-002 + GSK3326595", "setting": "PRMT9; uM -1.68664", "result": "2.126 and 2.181 and 2.003"}, {"measurement": "BRET, CBH-002 + DMSO", "setting": "PRMT9; uM -1.98767", "result": "2.1788 and 2.218 and 2.268"}, {"measurement": "BRET, CBH-002 + GSK3326595", "setting": "PRMT9; uM -1.98767", "result": "2.04 and 1.965 and 2.075"}, {"measurement": "BRET, CBH-002 + GSK3326595", "setting": "PRMT9; uM -2.46479", "result": "2.072 and 1.988 and 1.944"}, {"measurement": "BRET, CBH-002 + DMSO", "setting": "PRMT9; uM -2.94191", "result": "1.888 and 2.124 and 2.713"}, {"measurement": "BRET, CBH-002 + GSK3326595", "setting": "PRMT9; uM -2.94191", "result": "1.993 and 2.159 and 2.4012"}, {"measurement": "CBH-002 engagement at PRMT9", "setting": "PRMT9; HEK293, PRMT9-NL", "result": "did not show engagement"}]}
